Measured values taken from publication PMC3164168 (PLoS ONE, 2011).
Entries after “also recorded” stand apart in the source; their conditions may differ. Where two headings read alike, the source gives them in different places.

What was measured:
[1] = test system: pp28-luciferase Towne CMV; experiment: microbe, parasite or virus in culture; type: cell-based, human cytomegalovirus; conditions: for inhibition of late pp28 gene expression (luciferase activity): 72 hpi; for difference in SI versus parent alcohol: 838 vs 606, 832-4 vs 760; for EC50: Human betaherpesvirus 5; for SI (selectivity index, ratio of CC50 to EC50): CC50 in HFF / anti-CMV EC50
Text: The pp28-luciferase Towne strain was constructed as previously described. Briefly, the recombinant virus, which expresses luciferase under the control of UL99 (pp28) late promoter was generated by insertion of the reporter gene between the US9 and US10 open reading frames (ORFs) in the Towne genome. […] The ganciclovir (GCV)-resistant strain was obtained from a patient with CMV disease. […] This clinical isolate was provided by the clinical virology laboratory with no identifiers that can link to a specific subject. The Johns Hopkins Office of Human Subject Research Institutional Review Board determined that this research qualified for an exemption.
(§1) Human Foreskin Fibroblasts (HFF) passage 12–16 (ATCC, CRL-2088™) were grown in Dulbecco's Modified Eagle Medium (DMEM) containing 10% fetal bovine serum (Gibco, Carlsbad, CA) in a 5% CO2 incubator at 37°C and used for infections with pp28-luciferase Towne CMV or the GCV-resistant strain. One day prior to infection with the pp28-luciferase, 4×10^4 HFF cells were seeded on each well of 24-well tissue culture plates. Infection was carried out at multiplicity of infection of 1 PFU/cell (MOI = 1). Following 90 minute adsorption, media containing virus was removed and replaced by DMEM with 4% fetal bovine serum (Gibco, Carlsbad, CA) containing anti-viral compounds. The concentration of each compound was calculated and adjusted by volume such that it was constant throughout the experiment.
(§2) Infected and treated HFF cells were collected 72 hpi and washed once with PBS. The lysates were assayed for luciferase and cell viability using a Luciferase Assay Kit (Promega, Madison, WI) and CellTiter-Glo Luminescent Cell Viability Assay Kit, respectively, on GloMax®-Multi+ Detection System (Promega) according to manufacturer's instructions.

[2] = test system: 1205Lu (melanoma); experiment: MTT cancer cell growth assay, 1205Lu; type: cell-based, human; conditions: for CC50: read-out: CC50 1205Lu
Procedure: (§3) HeLa (Human Cervical Adenocarcinoma), HCT116 (Human Colorectal Carcinoma) and 1205Lu (Human Melanoma) cells (all from ATCC) were maintained in DMEM containing 10% fetal bovine serum. 12–16 hours prior to drug treatment, 3×10^3 to 5×10^3 cells were seeded on each well of 96-well tissue culture plates. Drugs were diluted in DMEM containing 10% fetal bovine serum and applied to the cells. 72 hours after drug treatment, 20 µl of MTT solution (5 mg/ml in PBS) was added into each well, followed by shaking the plates at 150 rpm for 5 minutes and an incubation of 4 hours (37°C, 5% CO2). Media was removed, plates dried and each well was resuspended in 100 µl MTT formazan/DMSO. The absorbance of each well was recorded at 560 nm on GloMax®-Multi+ Detection System (Promega).

[3] = test system: HCT116 (colorectal carcinoma); experiment: MTT cancer cell growth assay, HCT116; type: cell-based, human; conditions: for CC50: read-out: CC50 HCT116
Procedure: as §3

[4] = test system: HFF; experiment: CellTiter-Glo Luminescent Cell Viability assay in HFF; type: cell-based
Procedure: as §1, §2

[5] = as above; type: cell-based; conditions: human
Procedure: as §1, §2

[6] = test system: GCV-resistant CMV strain (UL97 mutation H520Q); experiment: Plaque reduction assay, GCV-resistant CMV strain; type: cell-based, human cytomegalovirus; conditions: for inhibition of plaque formation, GCV-resistant CMV strain: 0.1 µM, plaques counted 21 days after infection
Text: The pp28-luciferase Towne strain was constructed as previously described. Briefly, the recombinant virus, which expresses luciferase under the control of UL99 (pp28) late promoter was generated by insertion of the reporter gene between the US9 and US10 open reading frames (ORFs) in the Towne genome. […] We have recently reported that the pp28-luciferase reporter system is sensitive, reproducible and highly correlates with plaque reduction. The ganciclovir (GCV)-resistant strain was obtained from a patient with CMV disease. […] This clinical isolate was provided by the clinical virology laboratory with no identifiers that can link to a specific subject. The Johns Hopkins Office of Human Subject Research Institutional Review Board determined that this research qualified for an exemption.
Human lung fibroblasts (HEL) passage 8–12 (ATCC, CCL-137™) were grown in DMEM containing 10% fetal bovine serum. One day prior to infection, 3×10^5 cells were seeded on each well of 12-well tissue culture plates. GCV-resistant CMV was diluted in DMEM to a desired concentration which gave around 100 plaques per well and added to each well in duplicates. Plates were incubated for 90 minutes with shaking every 10 min; thereafter drugs were added and a methylcellulose overlay applied to each well. After incubation for 21 days, cells were stained with crystal violet and plaques were counted under microscope at 40× magnification.

[7] = test system: HeLa (cervical adenocarcinoma); experiment: MTT cancer cell growth assay, HeLa; type: cell-based, human; conditions: for CC50: read-out: CC50 HeLa
Procedure: as §3

[8] = Homo sapiens, 1205Lu, MTT 72 hr after treatment
[9] = Homo sapiens, HCT-116, MTT 72 hr after treatment
[10] = Homo sapiens, HeLa, MTT 72 hr after treatment
[11] = HFF, 72 h, measured at 1 µM to 100 µM, read-out: CC50

With `CC1CCC2C(C)C(CC(CSc3cccc(COC(=O)N(C)C)c3)CC3OC4OC5(C)CCC6C(C)CCC(C3C)C46OO5)OC3OC4(C)CCC1C32OO4` (centres unmarked) [800-3, Dimer isobu-SPh-3-CH2OC(O)NMe2] the “inhibition of late pp28 gene expression (luciferase activity)” value (“inhibition of late pp28 gene expression” for short) ([1]; 0.1 µM) was “not active” and the “inhibition of late pp28 gene expression” value ([1]; 0.3 µM) was “active”.

For `CC1CCC2C(C)C(CC(CSc3ccc(COC(=O)N(C)C)cc3)CC3OC4OC5(C)CCC6C(C)CCC(C3C)C46OO5)OC3OC4(C)CCC1C32OO4` (centres unmarked) [800-4, Dimer isobu-SPh-4-CH2OC(O)NMe2], the “inhibition of late pp28 gene expression” value ([1]; 0.1 µM) was “not active” and the “inhibition of late pp28 gene expression” value ([1]; 0.3 µM) was “active”.

In the case of `CC1CCC2C(C)C(CC(CC3OC4OC5(C)CCC6C(C)CCC(C3C)C46OO5)CS(=O)(=O)c3cccc(COC(=O)N(C)C)c3)OC3OC4(C)CCC1C32OO4` (centres unmarked) [832-3, Dimer isobu-SO2Ph-3-CH2OC(O)NMe2], the “inhibition of late pp28 gene expression” value ([1]; 0.1 µM) is reported as “not active” and the “inhibition of late pp28 gene expression” value ([1]; 0.3 µM) is reported as “active”.

With `CC1CCC2C(C)C(CC(CC3OC4OC5(C)CCC6C(C)CCC(C3C)C46OO5)CS(=O)(=O)c3ccc(COC(=O)N(C)C)cc3)OC3OC4(C)CCC1C32OO4` (centres unmarked) [832-4, Dimer isobu-SO2Ph-4-CH2OC(O)NMe2] the “effectiveness in CMV inhibition versus monomer 551” value [1] was “at least 150 fold”, the “inhibition of late pp28 gene expression” value ([1]; 0.1 µM) was “highly inhibitory” and the “difference in SI versus parent alcohol” value [1] was 30 fold. For the same molecule, the EC50 [1] was 0.07 ± 0.004 µM, the CC50 [2, 8] was 0.13 ± 0.007 µM and the CC50 [3, 9] was 0.07 ± 0.006 µM. The “cellular toxicities at concentrations of complete CMV inhibition” value [4] was “not observed”, the CC50 at 72 h [5] was 57.5 ± 2.9 µM and the “inhibition of plaque formation, GCV-resistant CMV strain” value [6] was “fully inhibited”. For the same molecule, the CC50 [7, 10] was 0.27 ± 0.03 µM.

For `C[C@H]1[C@@H](CCC(=O)Nc2ccc(F)cc2)O[C@@H]2OC3(C)CC[C@H]4[C@H](C)CC[C@@H]1[C@@]24OO3` [Artefanilide], the CC50 ([2]; MTT 72 hr after treatment) was over 50 µM, the CC50 ([3]; MTT 72 hr after treatment) was 40 ± 7.9 µM and the CC50 [4] was 44.9 ± 3.4 µM. It also gave a CC50 ([7]; MTT 72 hr after treatment) of over 50 µM.

With `Nc1nc(O)c2ncn(COC(CO)CO)c2n1` [GCV, Ganciclovir, reference compound] the “inhibition of late pp28 gene expression” value ([1]; 0.1 µM) was “no inhibition at all”, the “SI (selectivity index, ratio of CC50 to EC50)” value [1] was 96±14 and the EC50 [1] was 2.7 ± 0.1 µM. For the same molecule, the CC50 [2, 8] was over 50 µM, the CC50 [3, 9] was over 50 µM and the CC50 at 72 h [5, 11] was 247 ± 33.4 µM. The “plaque formation, GCV-resistant CMV strain” value ([6]; GCV at 5 µM, 21 days) was “obvious resistance”, the EC50 ([6]; Human betaherpesvirus 5, read-out: EC50 of GCV for the GCV-resistant strain) was 7.6 µM and the CC50 [7, 10] was over 50 µM.

For `C[C@H]1[C@H](OC(=O)CCC(=O)O)O[C@@H]2O[C@@]3(C)CC[C@H]4[C@H](C)CC[C@@H]1[C@@]24OO3` [artesunate, Artesunate, reference compound], the “SI (selectivity index, ratio of CC50 to EC50)” value [1] was 11±0.9, the EC50 [1] was 6.6 ± 0.4 µM and the CC50 [2, 8] was 42 ± 2.4 µM. The CC50 [3, 9] was 11.3 ± 0.6 µM, the CC50 at 72 h [5, 11] was 71.7 ± 4 µM and the CC50 [7, 10] was 7.1 ± 0.4 µM.

With `CC1CCC2C(C)C(CCCS(=O)(=O)c3ccc(COC(=O)N(C)C)cc3)OC3OC4(C)CCC1C32OO4` (centres unmarked) [compound 551, Art-PrSO2Ph-4-CH2OC(O)NMe2] the “inhibition of late pp28 gene expression” value ([1]; 1 µM) was “did not”.

With `CC1CCC2C(C)C(CC(CO)CC3OC4OC5(C)CCC6C(C)CCC(C3C)C46OO5)OC3OC4(C)CCC1C32OO4` (centres unmarked) [compound 606, Dimer isobu-OH] the “SI (selectivity index, ratio of CC50 to EC50)” value [1] was 292±21, the EC50 [1] was 0.16 ± 0.008 µM and the CC50 [2, 8] was 4.9 ± 0.04 µM. The CC50 [3, 9] was 0.1 ± 0.001 µM, the CC50 at 72 h [5] was 48.1 ± 2.6 µM and the CC50 [7, 10] was 1.06 ± 0.2 µM.

In the case of `CC1CCC2C(C)C(CC(CC3OC4OC5(C)CCC6C(C)CCC(C3C)C46OO5)CS(=O)(=O)c3ccc(CO)cc3)OC3OC4(C)CCC1C32OO4` (centres unmarked) [compound 760, Dimer isobu-SO2Ph-4-CH2OH], the “SI (selectivity index, ratio of CC50 to EC50)” value [1] is reported as 34.5±2, the EC50 [1] is reported as 0.14 ± 0.008 µM and the CC50 [2, 8] is reported as 0.1 ± 0.006 µM. It also gave a CC50 [3, 9] of 0.07 ± 0.005 µM, a CC50 at 72 h [5] of 4.9 ± 0.2 µM and a CC50 [7, 10] of 0.56 ± 0.18 µM.

In the case of `CC1CCC2C(C)C(CC(COP(=O)(Oc3ccccc3)Oc3ccccc3)CC3OC4OC5(C)CCC6C(C)CCC(C3C)C46OO5)OC3OC4(C)CCC1C32OO4` (centres unmarked) [compound 838, Dimer isobu-OP(O)(OPh)2], the SI versus artesunate [1] is reported as 134 fold, the “anti-CMV potency versus artesunate (using EC50 values)” value [1] is reported as 165 fold and the “inhibition of late pp28 gene expression” value ([1]; 0.1 µM) is reported as “highly inhibitory”. For the same molecule, the “difference in SI versus parent alcohol” value [1] was 5 fold, the EC50 [1] was 0.04 ± 0.003 µM and the “potency in inhibiting growth versus artesunate, 1205Lu” value [2] was “at least 200 fold”. For the same molecule, the CC50 ([2]; Homo sapiens, 1205Lu, 72 h) was 0.06 ± 0.002 µM, the “potency in inhibiting growth versus artesunate, HCT116” value [3] was “at least 200 fold” and the CC50 ([3]; Homo sapiens, HCT-116, 72 h) was 0.04 ± 0.005 µM. The “cellular toxicities at concentrations of complete CMV inhibition” value ([4]; HFF) was “not observed”, the CC50 at 72 h [5, 11] was 55.8 ± 2.8 µM and the “inhibition of plaque formation, GCV-resistant CMV strain” value [6] was “fully inhibited; also recorded: highly active”. The “potency in inhibiting growth versus artesunate, HeLa” value [7] was 37 fold and the CC50 ([7]; Homo sapiens, HeLa, 72 h) was 0.19 ± 0.08 µM.
